Results on 16 compounds are retold here after PubChem BioAssay AID330 (DTP/NCI, 2004).

For the experiment, the system named is P388 leukemia ip, CD2F1 mice, survival T/C. As to the kind of experiment: NCI In Vivo Anticancer Drug Screen. Data for tumor model P388 Leukemia (intraperitoneal) in CD2F1 (CDF1) mice. The settings on record: endpoint: median survival time, higher = longer survival. The method in brief: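 Mice carrying the transplanted tumor received test compound or vehicle. Survival was recorded in each group, and the value is the treated-group measurement divided by that of the vehicle-treated control group.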

The mark [1] stands for this setting: dose: 50.0 mg/kg/injection, schedule: Q01DX009 (ip), vehicle: saline with Tween-80.
Setting [2] is: dose: 50.0 mg/kg/injection, schedule: Q01DX005 (ip), vehicle: Klucel (hydroxypropylcellulose) (HPC).
The mark [3] stands for this setting: dose: 200.0 mg/kg/injection, schedule: Q01DX005 (ip), vehicle: Klucel (hydroxypropylcellulose) (HPC).
Setting [4] is: dose: 50.0 mg/kg/injection, schedule: Q01DX005 (ip), vehicle: saline with Tween-80.
Where [5] appears, read: dose: 100.0 mg/kg/injection, schedule: Q01DX005 (ip), vehicle: saline with Tween-80.
[6] abbreviates: dose: 50.0 mg/kg/injection, schedule: Q01DX009 (ip), vehicle: saline.
Where [7] appears, read: dose: 100.0 mg/kg/injection, schedule: Q01DX009 (ip), vehicle: saline.
[8] abbreviates: dose: 200.0 mg/kg/injection, schedule: Q01DX009 (ip), vehicle: saline.

Inconclusive results and toxic doses are left out.

`CCOC(=O)Nc1cc2c(c(N)n1)N=C(c1ccc(C(F)(F)F)cc1)CN2`: the T/C by setting is: (dose: 2.5 mg/kg/injection, schedule: Q01DX009 (ip), vehicle: saline with Tween-80) 109 % of control; (dose: 5.0 mg/kg/injection, schedule: Q01DX009 (ip), vehicle: saline with Tween-80) 111 % of control; (dose: 7.5 mg/kg/injection, schedule: Q04DX003 (ip), vehicle: saline with Tween-80) 101 % of control; (dose: 10.0 mg/kg/injection, schedule: Q01DX009 (ip), vehicle: saline with Tween-80) 111 % of control; (dose: 12.5 mg/kg/injection, schedule: Q01DX009 (ip), vehicle: saline with Tween-80) 86 % of control; (dose: 15.0 mg/kg/injection, schedule: Q04DX003 (ip), vehicle: saline with Tween-80) 104 % of control. For the same compound, the T/C (dose: 22.5 mg/kg/injection, schedule: Q01DX001 (ip), vehicle: saline with Tween-80) was 101 % of control; the T/C (dose: 25.0 mg/kg/injection, schedule: Q01DX009 (ip), vehicle: saline with Tween-80) is 111 % of control; the T/C (dose: 30.0 mg/kg/injection, schedule: Q04DX003 (ip), vehicle: saline with Tween-80) was 101 % of control; the T/C (dose: 45.0 mg/kg/injection, schedule: Q01DX001 (ip), vehicle: saline with Tween-80) is 94 % of control; the T/C under setting [1] is 117 % of control; the T/C (dose: 90.0 mg/kg/injection, schedule: Q01DX001 (ip), vehicle: saline with Tween-80) was 101 % of control.
As to `COc1cc2c(C)c[n+]3cc4cc5c(OC)c(OC)ccc5cc4cc3c2cc1OC` (tested in a mixture with another compound), the T/C by setting is: (dose: 3.13 mg/kg/injection, schedule: Q04DX003 (ip), vehicle: distilled water + Tween-80) 117 % of control; (dose: 6.25 mg/kg/injection, schedule: Q04DX003 (ip), vehicle: distilled water + Tween-80) 117 % of control; (dose: 12.5 mg/kg/injection, schedule: Q04DX003 (ip), vehicle: distilled water + Tween-80) 111 % of control; (dose: 25.0 mg/kg/injection, schedule: Q04DX003 (ip), vehicle: distilled water + Tween-80) 99 % of control.
As to `CC1(C)OCC(C2OC3OC(C)(C)OC3C2N2CCC(O)O2)O1` (centres undefined), the T/C was 103 % of control (dose: 97.75 mg/kg/injection, schedule: Q04DX002 (ip), vehicle: saline); 109 % of control (dose: 195.5 mg/kg/injection, schedule: Q04DX002 (ip), vehicle: saline); 105 % of control (dose: 391.0 mg/kg/injection, schedule: Q04DX002 (ip), vehicle: saline).
For the compound `Cc1cccc(C)c1OCc1nnc(SCC(=O)O)n1-c1c(C)cccc1C`, the T/C is 102 % of control under setting [2]; 99 % of control (dose: 100.0 mg/kg/injection, schedule: Q01DX005 (ip), vehicle: Klucel (hydroxypropylcellulose) (HPC)); 93 % of control under setting [3].
`Cc1ccc2c(c1)C(=S)NC(=O)C2`: the T/C reads like this: (dose: 12.5 mg/kg/injection, schedule: Q01DX009 (ip), vehicle: distilled water + Tween-80) 87 % of control; (dose: 50.0 mg/kg/injection, schedule: Q01DX009 (ip), vehicle: distilled water + Tween-80) 93 % of control; (dose: 100.0 mg/kg/injection, schedule: Q01DX009 (ip), vehicle: distilled water + Tween-80) 91 % of control; (dose: 200.0 mg/kg/injection, schedule: Q01DX009 (ip), vehicle: distilled water + Tween-80) 95 % of control.
Turning to `COc1nc(N)nc2c1ncn2C1OC(CO)CC1O` (centres undefined), the T/C under setting [4] is 86 % of control; the T/C under setting [5] was 88 % of control; the T/C (dose: 200.0 mg/kg/injection, schedule: Q01DX005 (ip), vehicle: saline with Tween-80) was 97 % of control.
In the case of `O=NN(CCF)C(=O)Oc1cc(Cl)c(Cl)cc1Cl`, the T/C is 170 % of control (dose: 12.0 mg/kg/injection, schedule: Q01DX005 (ip), vehicle: saline with Tween-80) and 202 % of control (dose: 25.0 mg/kg/injection, schedule: Q01DX005 (ip), vehicle: saline with Tween-80).
As for `C/C(=N\OC(=O)c1c(-c2c(Cl)cccc2Cl)noc1C)c1ccccc1O`, the T/C reads like this: under setting [6], 91 % of control; under setting [7], 94 % of control; under setting [8], 93 % of control.
On to `FC(F)(F)c1ccccc1N=Cc1ccc(C=Nc2ccccc2C(F)(F)F)cc1`, for which the T/C is 98 % of control (dose: 50.0 mg/kg/injection, schedule: Q01DX009 (ip), vehicle: Klucel (hydroxypropylcellulose) (HPC)) and 91 % of control (dose: 100.0 mg/kg/injection, schedule: Q01DX009 (ip), vehicle: Klucel (hydroxypropylcellulose) (HPC)).
For the compound `CCCCCCCCCCCCOc1ccccc1`, the T/C is 100 % of control under setting [1]; 104 % of control (dose: 100.0 mg/kg/injection, schedule: Q01DX009 (ip), vehicle: saline with Tween-80); 100 % of control (dose: 200.0 mg/kg/injection, schedule: Q01DX009 (ip), vehicle: saline with Tween-80).
With `CCOc1cccc(Cc2c[nH]c(=O)[nH]c2=O)c1`, the T/C was 94 % of control (dose: 60.0 mg/kg/injection, schedule: Q01DX005 (ip), vehicle: saline with Tween-80); 92 % of control (dose: 120.0 mg/kg/injection, schedule: Q01DX005 (ip), vehicle: saline with Tween-80); 90 % of control (dose: 240.0 mg/kg/injection, schedule: Q01DX005 (ip), vehicle: saline with Tween-80).
For the compound `COc1ccc(C2CC(=O)NC(N)=N2)c(O)c1` (centres undefined), the T/C under setting [6] is 103 % of control, the T/C under setting [7] was 104 % of control and the T/C under setting [8] is 103 % of control.
On to `CCc1nc(N)nc(N)c1-c1ccc2nn(-c3ccccc3)[n+]([O-])c2c1`, for which the T/C by setting is: under setting [2], 108 % of control; under setting [3], 87 % of control.
Take `COC(=O)C(NC(=O)C(CO)N1C(=O)c2ccccc2C1=O)c1ccccc1` (centres undefined): the T/C runs as follows: under setting [4], 99 % of control; under setting [5], 98 % of control.
For the compound `CC(COC(=O)c1cccc([N+](=O)[O-])c1C(=O)O)c1ccccc1` (centres undefined), the T/C by setting is: (dose: 100.0 mg/kg/injection, schedule: Q04DX002 (ip), vehicle: saline with Tween-80) 98 % of control; (dose: 200.0 mg/kg/injection, schedule: Q04DX002 (ip), vehicle: saline with Tween-80) 109 % of control; (dose: 400.0 mg/kg/injection, schedule: Q04DX002 (ip), vehicle: saline with Tween-80) 110 % of control.
Take `c1ccc2c(SCCSc3c4ccccc4nc4ccccc34)c3ccccc3nc2c1`: the T/C is 90 % of control (dose: 60.0 mg/kg/injection, schedule: Q01DX005 (ip), vehicle: Klucel (hydroxypropylcellulose) (HPC)) and 96 % of control (dose: 120.0 mg/kg/injection, schedule: Q01DX005 (ip), vehicle: Klucel (hydroxypropylcellulose) (HPC)).
